Entries after “also recorded” stand apart in the source; their conditions may differ.
Columns and labels:
[1] = test system: mice with inflammatory pain (CFA); assay: Inflammatory pain (CFA in paw): mechanical allodynia (Von Frey) and thermal hyperalgesia; assay type: in vivo
Excerpt: Peripheral inflammation was induced by injection of Complete Freud Adjuvant (CFA, mixed with an equal amount of oil, […], Jackson labs) (Raghavendra et al., “Complete Freunds Adjuvant-Induced Peripheral Inflammation Evokes Glial Activation and Proinflammatory Cytokine Expression in the CNS,” Eur. J. Neurosci. 20:467-473 (2004), which is hereby incorporated by reference in its entirety). […] Neuropathic pain was induced by ligation of the sciatic nerve with 4.0 polypropylene suture in mice sedated with ketamine (60 mg/kg, i.p.) and xylazine (10 mg/kg, i.p.) (Bennett et al., “A Peripheral Mononeuropathy in Rat that Produces Disorders of Pain Sensation Like Those Seen in Man,” Pain 33:87-107 (1988); Martucci et al., “The Purinergic Antagonist PPADS Reduces Pain Related Behaviours and Interleukin-1 beta, Interleukin-6, iNOS and nNOS Overproduction in Central and Peripheral Nervous System After Peripheral Neuropathy in Mice,” Pain 137:81-95 (2008), which are hereby incorporated by reference in their entirety).
Mechanical allodynia was evaluated using repeated stimulations with a Von Frey filament exerting 0.02 grams of force onto the plantar surface (Colburn et al., “The Effect of Site and Type of Nerve Injury on Spinal Glial Activation and Neuropathic Pain Behavior,” Exp. Neurol. 157:289-304. (1999), which is hereby incorporated by reference in its entirety). The percentage of negative responses of a total of 10 trials was calculated for each foot. Thermal hyperalgesia was assessed using an Analgesymeter (Ugo Basile, Comerio, Italy) (Stein et al., “Intrinsic Mechanisms of Antinociception in Inflammation: Local Opioid Receptors and Beta-Endorphin,” J. Neurosci. 10:1292-1298 (1990), which is hereby incorporated by reference in its entirety). In short, a mobile radiant heat source was focused on the hind paw, and the paw withdrawal latencies were defined as the time taken by the mouse to remove its hind paw from the heat source (max 20 sec to avoid tissue damage). The paw withdrawal was repeated three times for each foot and the average calculated. To avoid conditioning to stimulation a 5 min rest period was interposed between each trial in both thermal and mechanical tests. Behavioral parameters were evaluated prior to intraplantar injection of CFA or nerve ligation (i.e. day 0), and again on day 3-4 in mice receiving the CFA injection, and at day 5-7 in mice with nerve ligation unless otherwise noted. Prior to injection of CCPA, saline, or acupuncture in the Zusanli point, the mice were placed in a restraining under light isoflurane anesthesia (˜1%). The total duration of anesthesia was ˜2 min and mice with inflammatory, neurogenic pain, and their controls were treated similarly. 2-chloro-N6-cyclopentyl-adenosine (CCPA, 0.1 mM, 20 μl) was injected in the Zusanli point ˜5 min before acupuncture. […] The needle was slowly rotated ˜2 time (˜20-30 sec) every 5 min for a total of 30 min during an acupuncture session. A microdialysis probe (MD-2211, Bioanalytical systems, West Lafayette, Ind.) was implanted 1-3 hrs prior to collection of microdialysis samples. The microdialysis probe was implanted in a distance of 0.4-0.6 mm from the Zusanli point. The microdialysis probe was perfused with Ringer's solution at a rate of 1 μl per minute. The microdialysates were collected on ice and the perfusate collected over a 30 min period (30 μl) was immediately frozen at −80° C. until HPLC analysis. Deoxycoformycin was administered in a dose of 50 mg/kg i.p. 30 min prior to acupuncture.

[2] = test system: mice with neuropathic pain; assay: Neuropathic pain (sciatic nerve ligation): mechanical allodynia and thermal hyperalgesia; assay type: in vivo; settings: WT mice, combined with acupuncture
Procedure: Peripheral inflammation was induced by injection of Complete Freud Adjuvant (CFA, mixed with an equal amount of oil, total volume 0.1 ml) in the plantar surface of the left hind paw of mice (25-30 g, Jackson labs) (Raghavendra et al., “Complete Freunds Adjuvant-Induced Peripheral Inflammation Evokes Glial Activation and Proinflammatory Cytokine Expression in the CNS,” Eur. J. Neurosci. 20:467-473 (2004), which is hereby incorporated by reference in its entirety). An equal amount of saline (0.1 ml) was injected in the right hind paw as control. Neuropathic pain was induced by ligation of the sciatic nerve with 4.0 polypropylene suture in mice sedated with ketamine (60 mg/kg, i.p.) and xylazine (10 mg/kg, i.p.) (Bennett et al., “A Peripheral Mononeuropathy in Rat that Produces Disorders of Pain Sensation Like Those Seen in Man,” Pain 33:87-107 (1988); Martucci et al., “The Purinergic Antagonist PPADS Reduces Pain Related Behaviours and Interleukin-1 beta, Interleukin-6, iNOS and nNOS Overproduction in Central and Peripheral Nervous System After Peripheral Neuropathy in Mice,” Pain 137:81-95 (2008), which are hereby incorporated by reference in their entirety).
Mechanical allodynia was evaluated using repeated stimulations with a Von Frey filament exerting 0.02 grams of force onto the plantar surface (Colburn et al., “The Effect of Site and Type of Nerve Injury on Spinal Glial Activation and Neuropathic Pain Behavior,” Exp. Neurol. 157:289-304. (1999), which is hereby incorporated by reference in its entirety). The percentage of negative responses of a total of 10 trials was calculated for each foot. Thermal hyperalgesia was assessed using an Analgesymeter (Ugo Basile, Comerio, Italy) (Stein et al., “Intrinsic Mechanisms of Antinociception in Inflammation: Local Opioid Receptors and Beta-Endorphin,” J. Neurosci. 10:1292-1298 (1990), which is hereby incorporated by reference in its entirety). In short, a mobile radiant heat source was focused on the hind paw, and the paw withdrawal latencies were defined as the time taken by the mouse to remove its hind paw from the heat source (max 20 sec to avoid tissue damage). The paw withdrawal was repeated three times for each foot and the average calculated. To avoid conditioning to stimulation a 5 min rest period was interposed between each trial in both thermal and mechanical tests. Behavioral parameters were evaluated prior to intraplantar injection of CFA or nerve ligation (i.e. day 0), and again on day 3-4 in mice receiving the CFA injection, and at day 5-7 in mice with nerve ligation unless otherwise noted. Prior to injection of CCPA, saline, or acupuncture in the Zusanli point, the mice were placed in a restraining under light isoflurane anesthesia (˜1%). […]

[3] = test system: mice with inflammatory or neuropathic pain; assay: Statements covering both inflammatory and neuropathic pain models; assay type: in vivo; settings: 50 mg/kg i.p. 30 min prior to 30 min acupuncture; vehicle + acupuncture ~[…]
Procedure: Peripheral inflammation was induced by injection of Complete Freud Adjuvant (CFA, mixed with an equal amount of oil, total volume 0.1 ml) in the plantar surface of the left hind paw of mice (25-30 g, Jackson labs) (Raghavendra et al., “Complete Freunds Adjuvant-Induced Peripheral Inflammation Evokes Glial Activation and Proinflammatory Cytokine Expression in the CNS,” Eur. J. Neurosci. 20:467-473 (2004), which is hereby incorporated by reference in its entirety). An equal amount of saline (0.1 ml) was injected in the right hind paw as control. […]
Mechanical allodynia was evaluated using repeated stimulations with a Von Frey filament exerting 0.02 grams of force onto the plantar surface (Colburn et al., “The Effect of Site and Type of Nerve Injury on Spinal Glial Activation and Neuropathic Pain Behavior,” Exp. Neurol. 157:289-304. (1999), which is hereby incorporated by reference in its entirety). The percentage of negative responses of a total of 10 trials was calculated for each foot. Thermal hyperalgesia was assessed using an Analgesymeter (Ugo Basile, Comerio, Italy) (Stein et al., “Intrinsic Mechanisms of Antinociception in Inflammation: Local Opioid Receptors and Beta-Endorphin,” J. Neurosci. 10:1292-1298 (1990), which is hereby incorporated by reference in its entirety). […] The paw withdrawal was repeated three times for each foot and the average calculated. […] Behavioral parameters were evaluated prior to intraplantar injection of CFA or nerve ligation (i.e. day 0), and again on day 3-4 in mice receiving the CFA injection, and at day 5-7 in mice with nerve ligation unless otherwise noted. […]

AMP deaminase = assay: HPLC analysis of AMP degradation in muscle/subcutis sections from the Zusanli point; assay type: biochemical, mice; settings: 200 μM, tissue incubated in 1 mM AMP for 45 min
Procedure: The analysis of enzymatic degradation of purines was based on sections (400 μm) of skeletal muscles with overlying subcutis harvested from tissue in the Zusanli point. Each section per well was placed into a 6-well plate with 2 ml (in a phosphate-free buffer (in mM: 2 CaCl2, 120 NaCl, 5 KCL, 10 Glucose, 20 HEPES, pH=7.3) and bubble with 100% O2 containing 1 mM AMP with or without 500 μM deoxycoformycin (Tocris Bioscience, UK). The samples were collected from each well at 0 and 45 min and stored at −80° C. for HPLC analysis. The analyses were carried out on an ESA reverse-phase H584 HPLC system (ESA Inc., USA) and an ESA model 526 UV detector (ESA Inc.) as previously described (Cui et al., “The Organic Cation Transporter-3 is a Pivotal Modulator of Neurodegeneration in the Nigrostriatal Dopaminergic Pathway,” Proc. Nat'l. Acad. Sci. USA 106:8043-8048 (2009); Volonte et al., “Development of an HPLC Method for Determination of Metabolic Compounds in Myocardial Tissue,” J. Pharm. Biomed. Anal. 35:647-653 (2004), which are hereby incorporated by reference in their entirety). Chromatographic separation was achieved by using a Lichrospher® 100 RP-18 column (5 μm, 250 mm×3 mm; Merck, Germany). […] Eluted purines were detected at 260 nm, and the chromatographic peaks were integrated using CoulArray software.

[4] = test system: inflammatory pain, rat formalin test; settings: local injection; cited from earlier work
wild type mice = assay: Touch sensitivity (Von Frey filaments) after injection in the Zusanli point of wild type mice; assay type: in vivo; settings: 5 mM injected in Zusanli point, tested one hour after injection
Procedure: Using Von Frey Filaments, a baseline for pain threshold was established in the wild type. The mice were then injected with 5 mM of dibut 1-cAMP (db-cAMP) in the zunsanli accu-point. To ensure the proper spread of db cAMP, the mice were tested for pain one hour after injections and assessed for touch sensitivity. The experiment was repeated in the same animals 24 h later and yielded similar results.
Mechanical allodynia was evaluated using repeated stimulations with a Von Frey filament exerting 0.02 grams of force onto the plantar surface (Colburn et al., “The Effect of Site and Type of Nerve Injury on Spinal Glial Activation and Neuropathic Pain Behavior,” Exp. Neurol. 157:289-304. (1999), which is hereby incorporated by reference in its entirety). The percentage of negative responses of a total of 10 trials was calculated for each foot. Thermal hyperalgesia was assessed using an Analgesymeter (Ugo Basile, Comerio, Italy) (Stein et al., “Intrinsic Mechanisms of Antinociception in Inflammation: Local Opioid Receptors and Beta-Endorphin,” J. Neurosci. 10:1292-1298 (1990), which is hereby incorporated by reference in its entirety). […] The paw withdrawal was repeated three times for each foot and the average calculated. […]

SMILES	tactile or thermal sensitivity when not combined with acupuncture ([1]; CFA, no acupuncture)	effect on duration of acupuncture pain relief, mechanical and thermal stimulation ([1]; WT mice, combined with acupuncture)	effect on duration of acupuncture pain relief, mechanical and thermal stimulation [2]	duration of suppression of mechanical allodynia and thermal pain [3] [h]	reduction of AMP conversion to IMP (AMP deaminase) [%]	reduction of AMP conversion to IMP (AMP deaminase; listed as Deoxycoformycin)	pain relief on co-administration with an adenosine kinase inhibitor [4]	sensitivity to touch (wild type mice)
OC[C@H]1O[C@@H](n2cnc3c2NC=NC[C@H]3O)C[C@@H]1O [deoxycoformycin]	does not alter the pain sensitivity; also recorded: no effect	prolonged	prolonged	~3.0	~50	approximately 50%	augmented the pain relief	–
CCCC(=O)Nc1ncnc2c1ncn2[C@@H]1O[C@@H]2COP(=O)(O)O[C@H]2[C@H]1OC(=O)CCC [dibutyryl cAMP]	–	–	–	–	–	–	–	increased transiently

— patent publication US20130005676A1 (UNIVERSITY OF ROCHESTER, priority 2009, published 2013)
